Data as given in patent publication US10189838B2, “Aza-oxo-indoles for the treatment and prophylaxis of respiratory syncytial virus infection” (Hoffmann-La Roche Inc., priority 2013, dated 2019).
pEC50: −log10 of the molar value.

test system: RSV Long strain; assay: Viral cytopathic effect (CPE) assay, RSV Long strain; type: cell-based, Respiratory Syncytial Virus; details: human respiratory syncytial virus, 144 h, cell viability after 6 days (Cell Counting kit-8)
Outline: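 Cells in DMEM with 10% FBS infected next day with RSV Long (A subtype) at a dose giving ~80–90% CPE after 6 days, alongside half-log compound dilutions. Viability at day 6 by CCK-8, absorbance 450 nm referenced to 630 nm; EC50 is concentration giving 50% of maximal protection.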

Compound	pEC50
CS(=O)(=O)CCn1c(CN2C(=O)C3(CC3)c3ccncc32)cc2cc(Cl)cnc21 [Example 2-6, 1′-({5-Chloro-1-[2-(methylsulfonyl)ethyl]-1H-pyrrolo[2,3-b]pyridin-2-yl}methyl)spiro[cyclopropane-1,3′-pyrrolo[2,3-c]pyridin]-2′(1′H)-one]	7.56
CS(=N)(=O)CCCn1c(CN2C(=O)C3(CC3)c3ccncc32)cc2cc(Cl)ccc21 (stereo not drawn) [Example 14-1, 1′-({5-Chloro-1-[3-(S-methylsulfonimidoyl)propyl]-1H-indol-2-yl}methyl)spiro[cyclopropane-1,3′-pyrrolo[2,3-c]pyridin]-2′(1′H)-one]	8.22
O=C1N(Cc2cc3cc(Cl)ccc3n2CCCNCCO)c2cnccc2C12CC2 [Example 29, 1′-[(5-Chloro-1-{3-[(2-hydroxyethyl)amino]propyl}-1H-indol-2-yl)methyl]spiro[cyclopropane-1,3′-pyrrolo[2,3-c]pyridin]-2′(1′H)-one]	6.61
CS(=O)(=O)CCCc1c(CN2C(=O)C3(CC3)c3ccncc32)[nH]c2cc(Cl)ccc12 [Example 33, 1′-({6-Chloro-3-[3-(methylsulfonyl)propyl]-1H-indol-2-yl}methyl)spiro[cyclopropane-1,3′-pyrrolo[2,3-c]pyridin]-2′(1′H)-one]	8.22
CS(=O)(=O)NCCn1c(CN2C(=O)C3(CC3)c3ccncc32)cc2cc(Cl)ccc21 [Example 27-2, N-(2-{5-Chloro-2-[(2′-oxospiro[cyclopropane-1,3′-pyrrolo[2,3-c]pyridin]-1′(2′H)-yl)methyl]-1H-indol-1-yl}ethyl)methanesulfonamide]	7.94
CS(=O)(=O)CCn1c(CN2C(=O)C3(CC3)c3ccncc32)cc2cc(C#N)ccc21 [Example 1-3, 1-[2-(Methylsulfonyl)ethyl]-2-[(2′-oxospiro[cyclopropane-1,3′-pyrrolo[2,3-c]pyridin]-1′(2′H)-yl)methyl]-1H-indole-5-carbonitrile]	6.03
O=C1N(Cc2cc3cc(Cl)ccc3n2CCCN2CCCS2(=O)=O)c2cnccc2C12CC2 [Example 7-10, 1′-({5-Chloro-1-[3-(1,1-dioxido-1,2-thiazolidin-2-yl)propyl]-1H-indol-2-yl}methyl)spiro[cyclopropane-1,3′-pyrrolo[2,3-c]pyridin]-2′(1′H)-one]	7.54
O=C(CCn1c(CN2C(=O)C3(CC3)c3ccncc32)cc2cc(Cl)ccc21)NS(=O)(=O)C1CC1 [Example 19-1, 3-{5-Chloro-2-[(2′-oxospiro[cyclopropane-1,3′-pyrrolo[2,3-c]pyridin]-1′(2′H)-yl)methyl]-1H-indol-1-yl}-N-(cyclopropylsulfonyl)propanamide]	5.93
O=C1N(Cc2cc3cc(Cl)ccc3n2CCCN2CC[C@@H](O)C2)c2cnccc2C12CC2 [Example 21, 1′-[(5-Chloro-1-{3-[(3R)-3-hydroxypyrrolidin-1-yl]propyl}-1H-indol-2-yl)methyl]spiro[cyclopropane-1,3′-pyrrolo[2,3-c]pyridin]-2′(1′H)-one]	6.26
CS(=O)(=O)CCCn1c(CN2C(=O)C3(CC3)c3ccncc32)cc2cc(Cl)ccc21 [Example 22-3, 1′-({5-Chloro-1-[3-(methylsulfonyl)propyl]-1H-indol-2-yl}methyl)spiro[cyclopropane-1,3′-pyrrolo[2,3-c]pyridin]-2′(1′H)-one]	8.52
O=C1N(Cc2cc3cc(Cl)ccc3n2CCCS(=O)(=O)N2C[C@H]3C[C@@H]2CN3)c2cnccc2C12CC2 [Example 24-3, 1′-[(5-Chloro-1-{3-[(1R,4R)-2,5-diazabicyclo[2.2.1]hept-2-ylsulfonyl]propyl}-1H-indol-2-yl)methyl]spiro[cyclopropane-1,3′-pyrrolo[2,3-c]pyridin]-2′(1′H)-one]	7.72
CS(=O)(=O)CCn1c(CN2C(=O)C3(CC3)c3ccncc32)cc2cc(C(F)(F)F)ccc21 [Example 1-10, 1′-({1-[2-(Methylsulfonyl)ethyl]-5-(trifluoromethyl)-1H-indol-2-yl}methyl)spiro[cyclopropane-1,3′-pyrrolo[2,3-c]pyridin]-2′(1′H)-one]	6.25
CS(=O)(=O)c1ccc(Cn2c(CN3C(=O)C4(CC4)c4ccncc43)cc3cc(Cl)ccc32)cc1 [Example 4-2, 1′-({5-Chloro-1-[4-(methylsulfonyl)benzyl]-1H-indol-2-yl}methyl)spiro[cyclopropane-1,3′-pyrrolo[2,3-c]pyridin]-2′(1′H)-one]	6.56
CS(=O)(=O)CCn1c(CN2C(=O)C3(CCC3)c3ccncc32)cc2cc(Cl)cnc21 [Example 2-4, 1′-({5-Chloro-1-[2-(methylsulfonyl)ethyl]-1H-pyrrolo[2,3-b]pyridin-2-yl}methyl)spiro[cyclobutane-1,3′-pyrrolo[2,3-c]pyridin]-2′(1′H)-one]	7.54
O=C1N(Cc2cc3cc(Cl)ccc3n2CCCN2CCS(=O)(=O)CC2)c2cnccc2C12CC2 [Example 7-9, 1′-({5-Chloro-1-[3-(1,1-dioxidothiomorpholin-4-yl)propyl]-1H-indol-2-yl}methyl)spiro[cyclopropane-1,3′-pyrrolo[2,3-c]pyridin]-2′(1′H)-one]	6.10
CN(C)S(=O)(=O)CCCn1c(CN2C(=O)C3(CC3)c3ccncc32)cc2cc(Cl)cnc21 [Example 7-2, 3-{5-Chloro-2-[(2′-oxospiro[cyclopropane-1,3′-pyrrolo[2,3-c]pyridin]-1′(2′H)-yl)methyl]-1H-pyrrolo[2,3-b]pyridin-1-yl}-N,N-dimethylpropane-1-sulfonamide]	7.19
O=C1N(Cc2cc3nc(Cl)ccc3n2CCCS(=O)(=O)C2CC2)c2cnccc2C12CC2 [Example 4-6, 1′-({5-Chloro-1-[3-(cyclopropylsulfonyl)propyl]-1H-pyrrolo[3,2-b]pyridin-2-yl}methyl)spiro[cyclopropane-1,3′-pyrrolo[2,3-c]pyridin]-2′(1′H)-one]	7.54
CS(=O)(=O)CCn1c(CN2C(=O)C3(CC3)c3ccncc32)cc2cc(Cl)cc(F)c21 [Example 1-12, 1′-({5-Chloro-7-fluoro-1-[2-(methylsulfonyl)ethyl]-1H-indol-2-yl}methyl)spiro[cyclopropane-1,3′-pyrrolo[2,3-c]pyridin]-2′(1′H)-one]	8.47
O=C1N(Cc2nc3cc(Cl)cc(F)c3n2CC2COC2)c2cnccc2C12CC2 [Example 38-3, 1′-{[5-Chloro-7-fluoro-1-(oxetan-3-ylmethyl)-1H-benzimidazol-2-yl]methyl}spiro[cyclopropane-1,3′-pyrrolo[2,3-c]pyridin]-2′(1′H)-one]	7.52
CCOC(=O)CCn1c(CN2C(=O)C3(CC3)c3ccncc32)cc2cc(Cl)ccc21 [Example 11, Ethyl 3-{5-chloro-2-[(2′-oxospiro[cyclopropane-1,3′-pyrrolo[2,3-c]pyridin]-1′(2′H)-yl)methyl]-1H-indol-1-yl}propanoate]	7.72
O=C1N(Cc2cc3cc(Cl)ncc3n2CCC2CS(=O)(=O)C2)c2cnccc2C12CC2 [Example 4-11, 1′-({5-Chloro-1-[2-(1,1-dioxidothietan-3-yl)ethyl]-1H-pyrrolo[2,3-c]pyridin-2-yl}methyl)spiro[cyclopropane-1,3′-pyrrolo[2,3-c]pyridin]-2′(1′H)-one]	7.74
CS(=O)(=O)CCn1c(CN2C(=O)C3(CC3)c3ccncc32)cc2nc(Cl)ccc21 [Example 2-9, 1′-({5-Chloro-1-[2-(methylsulfonyl)ethyl]-1H-pyrrolo[3,2-b]pyridin-2-yl}methyl)spiro[cyclopropane-1,3′-pyrrolo[2,3-c]pyridin]-2′(1′H)-one]	7.20
CCOC(=O)CCn1c(CN2C(=O)C3(CC3)c3ccncc32)cc2cc(Cl)cc(F)c21 [Example 13, Ethyl 3-{5-chloro-7-fluoro-2-[(2′-oxospiro[cyclopropane-1,3′-pyrrolo[2,3-c]pyridin]-1′(2′H)-yl)methyl]-1H-indol-1-yl}propanoate]	7.74
CS(=O)(=O)CCn1c(CN2C(=O)C3(CC3)c3ccncc32)cc2cc(F)cc(F)c21 [Example 1-9, 1′-({5,7-Difluoro-1-[2-(methylsulfonyl)ethyl]-1H-indol-2-yl}methyl)spiro[cyclopropane-1,3′-pyrrolo[2,3-c]pyridin]-2′(1′H)-one]	7.62
CCS(=O)(=O)CCn1c(CN2C(=O)C3(CC3)c3ccncc32)cc2nc(Cl)ccc21 [Example 6, 1′-({5-Chloro-1-[2-(ethylsulfonyl)ethyl]-1H-pyrrolo[3,2-b]pyridin-2-yl}methyl)spiro[cyclopropane-1,3′-pyrrolo[2,3-c]pyridin]-2′(1′H)-one]	6.88
O=C1N(Cc2cc3cc(Cl)ccc3n2CCCS(=O)(=O)N2CCCC2)c2cnccc2C12CC2 [Example 7-5, 1′-({5-Chloro-1-[3-(pyrrolidin-1-ylsulfonyl)propyl]-1H-indol-2-yl}methyl)spiro[cyclopropane-1,3′-pyrrolo[2,3-c]pyridin]-2′(1′H)-one]	7.70
NCCn1c(CN2C(=O)C3(CC3)c3ccncc32)cc2cc(Cl)ccc21 [Example 24-5, 1′-{[1-(2-Aminoethyl)-5-chloro-1H-indol-2-yl]methyl}spiro[cyclopropane-1,3′-pyrrolo[2,3-c]pyridin]-2′(1′H)-one]	7.19

test system: not listed separately; assay: Single dose PK in male ICR mouse (IV and PO); type: in vivo; details: male ICR mice, IV 5 mg/kg
Protocol: The single dose PK in male ICR mouse was performed to assess their pharmacokinetic properties. Two groups of animals were dosed via either bolus intravenous (IV) or oral gavage (PO) of the respective compound. The animals for oral administration were fasted overnight prior to dosing and food was resumed 4 hours postdose. Blood samples (approximately 400 μL) were collected via cardiac puncture after euthanasia by carbon dioxide inhalation at 2 minutes, 5 minutes, 15 minutes, 30 minutes, 1 hour, 2 hours, 4 hours, 6 hours, 8 hours, and 24 hours postdose for IV group, and at 5 minutes, 15 minutes, 30 minutes, 1 hour, 2 hours, 4 hours, 6 hours, 8 hours, and 24 hours postdose for PO group. Blood samples were placed into tubes containing sodium heparin and centrifuged at 8000 rpm for 6 minutes at 4° C. to separate plasma from the samples.
Following centrifugation, the resulting plasma was transferred to clean tubes for bioanalysis on LC/MS/MS. The pharmacokinetic parameters were calculated using non-compartmental module of WinNonlin® Professional 5.2.

Compound	CLz	t1/2z
CS(=O)(=O)CCn1c(CN2C(=O)C3(CC3)c3ccncc32)cc2cc(Cl)cnc21 [Example 2-6, 1′-({5-Chloro-1-[2-(methylsulfonyl)ethyl]-1H-pyrrolo[2,3-b]pyridin-2-yl}methyl)spiro[cyclopropane-1,3′-pyrrolo[2,3-c]pyridin]-2′(1′H)-one]	23.7 mL/min/kg	43.4 min

same assay, conditions: male ICR mice, PO 25 mg/kg

Compound	F (bioavailability)	t1/2z
CS(=O)(=O)CCn1c(CN2C(=O)C3(CC3)c3ccncc32)cc2cc(Cl)cnc21 [Example 2-6, 1′-({5-Chloro-1-[2-(methylsulfonyl)ethyl]-1H-pyrrolo[2,3-b]pyridin-2-yl}methyl)spiro[cyclopropane-1,3′-pyrrolo[2,3-c]pyridin]-2′(1′H)-one]	58.3%	42.1 min

same assay, conditions: mouse, plasma; male ICR mice, IV 5 mg/kg

Compound	AUC(0-t)
CS(=O)(=O)CCn1c(CN2C(=O)C3(CC3)c3ccncc32)cc2cc(Cl)cnc21 [Example 2-6, 1′-({5-Chloro-1-[2-(methylsulfonyl)ethyl]-1H-pyrrolo[2,3-b]pyridin-2-yl}methyl)spiro[cyclopropane-1,3′-pyrrolo[2,3-c]pyridin]-2′(1′H)-one]	3510 ng·h/mL

same assay, conditions: mouse, plasma; male ICR mice, PO 25 mg/kg

Compound	AUC(0-t)
CS(=O)(=O)CCn1c(CN2C(=O)C3(CC3)c3ccncc32)cc2cc(Cl)cnc21 [Example 2-6, 1′-({5-Chloro-1-[2-(methylsulfonyl)ethyl]-1H-pyrrolo[2,3-b]pyridin-2-yl}methyl)spiro[cyclopropane-1,3′-pyrrolo[2,3-c]pyridin]-2′(1′H)-one]	10200 ng·h/mL
